Data taken from patent US10717733B2, “Haloallylamine indole and azaindole derivative inhibitors of lysyl oxidases and uses thereof” (PHARMAXIS LTD., priority 2016, dated 2020).
Counter-ions that a name gives are not always drawn.

Experiments:
Type in all cases: biochemical
Recombinant human MAO-B = Recombinant human MAO-B (Homo sapiens (Human), UniProt P27338); experiment: Inhibition of human recombinant MAO-B; settings: benzylamine 100 μM
Method in brief: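 Recombinant human MAO-B used as enzyme source (0.06 mg/mL, stated concentration). Run as for the human SSAO/VAP-1 assay, except benzylamine substrate at 100 μM.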

Human LOXL2 = Human LOXL2 (Homo sapiens (Human), UniProt Q9Y4K0); experiment: LOXL2 inhibition, peroxidase-coupled Amplex Red amine oxidase assay; settings: 30 min preincubation at 37° C., putrescine substrate
Sequence of Human LOXL2 (Q9Y4K0 26-774): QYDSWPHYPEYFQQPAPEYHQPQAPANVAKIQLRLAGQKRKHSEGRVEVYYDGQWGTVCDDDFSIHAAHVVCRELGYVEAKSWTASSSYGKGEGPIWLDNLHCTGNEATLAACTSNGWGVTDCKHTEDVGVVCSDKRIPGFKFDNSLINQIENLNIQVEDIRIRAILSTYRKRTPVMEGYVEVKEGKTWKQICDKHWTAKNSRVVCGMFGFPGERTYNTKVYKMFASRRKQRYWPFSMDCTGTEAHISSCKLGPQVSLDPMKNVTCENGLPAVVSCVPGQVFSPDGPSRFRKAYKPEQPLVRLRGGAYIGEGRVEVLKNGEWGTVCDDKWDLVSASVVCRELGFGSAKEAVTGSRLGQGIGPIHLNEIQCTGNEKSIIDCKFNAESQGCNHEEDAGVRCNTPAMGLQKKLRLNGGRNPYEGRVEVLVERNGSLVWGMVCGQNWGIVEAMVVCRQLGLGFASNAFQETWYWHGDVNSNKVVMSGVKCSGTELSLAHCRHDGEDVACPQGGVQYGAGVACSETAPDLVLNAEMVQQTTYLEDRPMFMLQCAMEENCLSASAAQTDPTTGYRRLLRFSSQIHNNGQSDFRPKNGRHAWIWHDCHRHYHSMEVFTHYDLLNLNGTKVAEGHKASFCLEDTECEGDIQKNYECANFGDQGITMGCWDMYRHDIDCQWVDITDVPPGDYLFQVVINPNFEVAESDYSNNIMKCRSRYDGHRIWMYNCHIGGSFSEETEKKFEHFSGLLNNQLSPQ
Method in brief: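 Enzyme in 1.2 M urea, 50 mM sodium borate pH 8.2 with 1 μM mofegiline and 0.5 mM pargyline, preincubated 30 min at 37° C with compound (11-point CRC). Putrescine at twice KM (10 mM for LOXL2) with Amplex Red/HRP; fluorescence (ex 565, em 590) read kinetically 30 min; IC50 from slopes.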

Bovine LOX = Bovine LOX (Bos taurus (Bovine), UniProt P33072); experiment: LOX inhibition, peroxidase-coupled Amplex Red amine oxidase assay; settings: 30 min preincubation at 37° C., putrescine substrate
Sequence of Bovine LOX (P33072 170-418): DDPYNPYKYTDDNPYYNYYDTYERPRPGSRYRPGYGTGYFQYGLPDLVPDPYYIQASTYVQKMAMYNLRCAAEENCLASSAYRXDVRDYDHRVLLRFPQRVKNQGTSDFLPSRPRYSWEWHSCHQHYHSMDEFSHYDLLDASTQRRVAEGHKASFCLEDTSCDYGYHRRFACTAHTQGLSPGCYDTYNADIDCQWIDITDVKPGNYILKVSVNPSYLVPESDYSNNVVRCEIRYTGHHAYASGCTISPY
Method in brief: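 Bovine LOX in 1.2 M urea, 50 mM sodium borate pH 8.2 with 1 μM mofegiline and 0.5 mM pargyline; putrescine at twice KM (e.g. 20 mM for LOX) with Amplex Red/HRP. Fluorescence (ex 565/em 590 nm) read kinetically over 30 min at 37–45 °C; IC50 from slopes.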

[1] = target: human recombinant SSAO/VAP-1 (Homo sapiens (Human), UniProt Q16853); experiment: Inhibition of human recombinant SSAO/VAP-1 amine oxidase activity; settings: 30 min preincubation at 37° C., 600 μM benzylamine
Sequence of human recombinant SSAO/VAP-1 (Q16853 34-763): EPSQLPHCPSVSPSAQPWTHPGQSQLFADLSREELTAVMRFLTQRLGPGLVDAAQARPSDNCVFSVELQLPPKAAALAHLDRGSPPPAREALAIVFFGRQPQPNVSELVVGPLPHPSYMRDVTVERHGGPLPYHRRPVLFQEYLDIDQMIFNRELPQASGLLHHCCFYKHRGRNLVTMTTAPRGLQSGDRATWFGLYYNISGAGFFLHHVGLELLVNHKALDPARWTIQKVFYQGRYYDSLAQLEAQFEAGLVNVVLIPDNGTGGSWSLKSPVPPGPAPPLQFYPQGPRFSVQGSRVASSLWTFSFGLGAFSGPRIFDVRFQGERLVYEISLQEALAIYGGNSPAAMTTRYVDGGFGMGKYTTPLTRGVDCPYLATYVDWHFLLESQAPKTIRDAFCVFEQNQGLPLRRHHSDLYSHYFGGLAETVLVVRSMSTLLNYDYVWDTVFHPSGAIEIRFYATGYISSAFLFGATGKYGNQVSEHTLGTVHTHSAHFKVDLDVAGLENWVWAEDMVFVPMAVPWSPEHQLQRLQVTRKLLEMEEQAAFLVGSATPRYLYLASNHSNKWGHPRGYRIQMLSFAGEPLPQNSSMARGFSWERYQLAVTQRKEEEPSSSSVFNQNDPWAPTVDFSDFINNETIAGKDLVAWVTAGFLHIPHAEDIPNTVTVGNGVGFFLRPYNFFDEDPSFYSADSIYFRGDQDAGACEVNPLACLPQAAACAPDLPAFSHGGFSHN
Method in brief: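 Purified SSAO/VAP-1 (residues 34-763, expressed in CHO Lec 8 cells; 0.25 μg/mL) preincubated 30 min at 37° C with compound in 0.1 M sodium phosphate pH 7.4. Reaction mix of 600 μM benzylamine, 120 μM Amplex Red and 1.5 U/mL HRP added; fluorescence (ex 565/em 590 nm) read every 2.5 min for 30 min; IC50 from kinetic slopes over 4-11 point curves.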

Sequence of Recombinant human MAO-B (P27338 whole entry): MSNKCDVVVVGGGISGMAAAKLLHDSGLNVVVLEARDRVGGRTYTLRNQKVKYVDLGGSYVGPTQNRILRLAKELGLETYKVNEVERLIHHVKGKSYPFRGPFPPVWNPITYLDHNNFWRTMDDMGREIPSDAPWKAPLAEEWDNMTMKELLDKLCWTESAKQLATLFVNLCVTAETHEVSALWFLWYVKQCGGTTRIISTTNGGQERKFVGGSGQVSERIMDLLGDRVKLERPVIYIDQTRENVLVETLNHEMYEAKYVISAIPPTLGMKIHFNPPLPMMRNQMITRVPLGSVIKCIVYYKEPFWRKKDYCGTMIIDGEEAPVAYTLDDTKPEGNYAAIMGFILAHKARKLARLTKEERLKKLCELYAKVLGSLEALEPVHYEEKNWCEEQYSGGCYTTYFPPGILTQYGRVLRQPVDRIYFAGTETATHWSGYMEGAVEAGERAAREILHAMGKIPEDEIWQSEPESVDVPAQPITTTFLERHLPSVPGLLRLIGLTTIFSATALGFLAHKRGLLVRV

Compound	IC50 (Recombinant human MAO-B)	IC50 (Human LOXL2)	IC50 (Bovine LOX)	IC50 [1]
Cc1c(-c2cccc(S(=O)(=O)N(C)C)c2)c2cc(Cl)ccc2n1C/C(F)=C/CN [Compound 62, (Z)-3-(1-(4-amino-2-fluorobut-2-en-1-yl)-5-chloro-2-methyl-1H-indol-3-yl)-N,N-dimethylbenzenesulfonamide]	> 3 µM	< 0.3 µM	> 0.3 µM	> 3 µM
Cc1c(-c2cncc(S(=O)(=O)N(C)C)c2)c2ccccc2n1C/C(F)=C/CN [Compound 63, (Z)-5-(1-(4-amino-2-fluorobut-2-en-1-yl)-2-methyl-1H-indol-3-yl)-N,N-dimethylpyridine-3-sulfonamide]	> 3 µM	< 0.3 µM	> 0.3 µM	> 3 µM
Cc1c(-c2cncc(S(=O)(=O)N(C)C)c2)c2cc(Cl)ccc2n1C/C(F)=C/CN [Compound 64, (Z)-5-(1-(4-amino-2-fluorobut-2-en-1-yl)-5-chloro-2-methyl-1H-indol-3-yl)-N,N-dimethylpyridine-3-sulfonamide]	> 3 µM	< 0.3 µM	> 0.3 µM	> 3 µM
Cc1c(-c2cncc(S(C)(=O)=O)c2)c2cc(Cl)ccc2n1C/C(F)=C/CN [Compound 65, (Z)-4-(5-chloro-2-methyl-3-(5-(methylsulfonyl)pyridin-3-yl)-1H-indol-1-yl)-3-fluorobut-2-en-1-amine]	> 3 µM	< 0.3 µM	> 0.3 µM	> 3 µM
CN(C)S(=O)(=O)c1cncc(-c2cn(C/C(F)=C/CN)c3ccc(Cl)cc23)c1 [Compound 66, (Z)-5-(1-(4-amino-2-fluorobut-2-en-1-yl)-5-chloro-1H-indol-3-yl)-N,N-dimethylpyridine-3-sulfonamide]	> 3 µM	< 0.3 µM	> 0.3 µM	> 3 µM
Cc1c(-c2cncc(S(=O)(=O)N(C)C)c2)c2ccc(Cl)cc2n1C/C(F)=C/CN [Compound 67, (Z)-5-(1-(4-amino-2-fluorobut-2-en-l-yl)-6-chloro-2-methyl-1H-indol-3-yl)-N,N-dimethylpyridine-3-sulfonamide, Dihydrochloride]	> 3 µM	< 0.3 µM	> 0.3 µM	> 3 µM
COc1ccc2c(n1)c(-c1cccc(SC)c1)c(C)n2C/C(F)=C/CN [Compound 68, (Z)-3-fluoro-4-(5-methoxy-2-methyl-3-(3-(methylthio)phenyl)-1H-pyrrolo[3,2-b]pyridin-1-yl)but-2-en-1-amine Dihydrochloride]	> 3 µM	< 0.3 µM	> 0.3 µM	> 3 µM
COc1ccc2c(n1)c(-c1cccc(S(C)(=O)=O)c1)c(C)n2C/C(F)=C/CN [Compound 69, (Z)-3-fluoro-4-(5-methoxy-2-methyl-3-(3-(methylsulfonyl)phenyl)-1H-pyrrolo[3,2-b]pyridin-1-yl)but-2-en-1-amine Dihydrochloride]	> 3 µM	< 0.3 µM	> 0.3 µM	> 3 µM
CNS(=O)(=O)c1cncc(-c2c(C)n(C/C(F)=C/CN)c3ccc(Cl)cc23)c1 [Compound 70, (Z)-5-(1-(4-amino-2-fluorobut-2-en-1-yl)-5-chloro-2-methyl-1H-indol-3-yl)-N-methylpyridine-3-sulfonamide]	> 3 µM	< 0.3 µM	> 0.3 µM	> 3 µM
Cc1c(-c2cncc(S(=O)(=O)N(C)C)c2)c2cc(F)ccc2n1C/C(F)=C/CN [Compound 71, (Z)-5-(1-(4-amino-2-fluorobut-2-en-1-yl)-5-fluoro-2-methyl-1H-indol-3-yl)-N,N-dimethylpyridine-3-sulfonamide]	> 3 µM	< 0.3 µM	> 0.3 µM	> 3 µM
Cc1c(-c2cncc(S(=O)(=O)N(C)C)c2)c2ncc(Cl)cc2n1C/C(F)=C/CN [Compound 72, (Z)-5-(1-(4-amino-2-fluorobut-2-en-1-yl)-6-chloro-2-methyl-1H-pyrrolo[3,2-b]pyridin-3-yl)-N,N-dimethylpyridine-3-sulfonamide]	> 3 µM	< 0.3 µM	> 0.3 µM	> 3 µM
Cc1c(-c2cncc(S(=O)(=O)N(C)C)c2)c2cc(Cl)cnc2n1C/C(F)=C/CN [Compound 73, (Z)-5-(1-(4-amino-2-fluorobut-2-en-1-yl)-5-chloro-2-methyl-1H-pyrrolo[2,3-b]pyridin-3-yl)-N,N-dimethylpyridine-3-sulfonamide]	> 3 µM	< 0.3 µM	> 0.3 µM	> 3 µM
Cc1c(-c2cncc(S(=O)(=O)N(C)C)c2)c2cccc(Cl)c2n1C/C(F)=C/CN [Compound 74, (Z)-5-(1-(4-amino-2-fluorobut-2-en-1-yl)-7-chloro-2-methyl-1H-indol-3-yl)-N,N-dimethylpyridine-3-sulfonamide]	> 3 µM	< 0.3 µM	> 0.3 µM	> 3 µM
Cc1c(-c2cncc(S(=O)(=O)N(C)C)c2)c2c(Cl)cccc2n1C/C(F)=C/CN [Compound 75, (Z)-5-(1-(4-amino-2-fluorobut-2-en-1-yl)-4-chloro-2-methyl-1H-indol-3-yl)-N,N-dimethylpyridine-3-sulfonamide]	> 3 µM	< 0.3 µM	> 0.3 µM	> 3 µM
Cc1c(-c2ccncc2)c2cc(Cl)ccc2n1C/C(F)=C/CN [Compound 76, (Z)-4-(5-chloro-2-methyl-3-(pyridin-4-yl)-1H-indol-1-yl)-3-fluorobut-2-en-1-amine]	> 3 µM	< 0.3 µM	> 0.3 µM	> 3 µM
Cc1c(-c2cccnc2)c2cc(Cl)ccc2n1C/C(F)=C/CN [Compound 77, (Z)-4-(5-chloro-2-methyl-3-(pyridin-3-yl)-1H-indol-1-yl)-3-fluorobut-2-en-1-amine]	> 3 µM	< 0.3 µM	> 0.3 µM	> 3 µM
Cc1c(-c2cccc(S(=O)(=O)N(C)C)n2)c2cc(Cl)ccc2n1C/C(F)=C/CN [Compound 78, (Z)-6-(1-(4-amino-2-fluorobut-2-en-1-yl)-5-chloro-2-methyl-1H-indol-3-yl)-N,N-dimethylpyridine-2-sulfonamide]	> 3 µM	< 0.3 µM	> 0.3 µM	> 3 µM
Cc1c(-c2cncc(S(=O)(=O)N(C)C)c2)c2cc(C3CC3)ccc2n1C/C(F)=C/CN [Compound 79, (Z)-5-(1-(4-amino-2-fluorobut-2-en-1-yl)-5-cyclopropyl-2-methyl-1H-indol-3-yl)-N,N-dimethylpyridine-3-sulfonamide]	> 3 µM	< 0.3 µM	> 0.3 µM	> 3 µM
Cc1c(-c2cncnc2)c2cc(Cl)ccc2n1C/C(F)=C/CN [Compound 80, (Z)-4-(5-chloro-2-methyl-3-(pyrimidin-5-yl)-1H-indol-1-yl)-3-fluorobut-2-en-1-amine]	> 3 µM	< 0.3 µM	> 0.3 µM	> 3 µM
Cc1c(-c2ccncc2)c2cc(S(=O)(=O)N(C)C)ccc2n1C/C(F)=C/CN [Compound 81, (Z)-1-(4-amino-2-fluorobut-2-en-1-yl)-N,N,2-trimethyl-3-(pyridin-4-yl)-1H-indole-5-sulfonamide]	> 3 µM	< 0.3 µM	> 0.3 µM	> 3 µM
Cc1ccc(S(=O)(=O)N(C)C)cc1-c1c(C)n(C/C(F)=C/CN)c2c(F)cc(Cl)cc12 [Compound 82, (Z)-3-(1-(4-amino-2-fluorobut-2-en-1-yl)-5-chloro-7-fluoro-2-methyl-1H-indol-3-yl)-N,N,4-trimethylbenzenesulfonamide]	> 3 µM	< 0.3 µM	> 0.3 µM	> 3 µM
Cc1c(-c2cncc(S(N)(=O)=O)c2)c2cc(Cl)ccc2n1C/C(F)=C/CN [Compound 83, (Z)-5-(1-(4-amino-2-fluorobut-2-en-1-yl)-5-chloro-2-methyl-1H-indol-3-yl)pyridine-3-sulfonamide]	> 3 µM	< 0.3 µM	> 0.3 µM	> 3 µM
Cc1c(-c2cncc(S(=O)(=O)N(C)C)c2)c2cc(OC(F)(F)F)ccc2n1C/C(F)=C/CN [Compound 85, (Z)-5-(1-(4-amino-2-fluorobut-2-en-1-yl)-2-methyl-5-(trifluoromethoxy)-1H-indol-3-yl)-N,N-dimethyl-pyridine-3-sulfonamide Dihydrochloride]	> 3 µM	< 0.3 µM	> 0.3 µM	> 3 µM
Cc1c(-c2ccccc2)c2cc(S(=O)(=O)N(C)C)ccc2n1C/C(F)=C/CN [Compound 86, (Z,)-1-(4-amino-2-fluorobut-2-en-1-yl)-N,N,2-trimethyl-3-phenyl-1H-indole-5-sulfonamide]	> 3 µM	< 0.3 µM	> 0.3 µM	> 3 µM
Cc1c(-c2ccccc2)c2cc(S(C)(=O)=O)ccc2n1C/C(F)=C/CN [Compound 87, (Z)-3-fluoro-4-(2-methyl-5-(methylsulfonyl)-3-phenyl-1H-indol-1-yl)but-2-en-1-amine]	> 3 µM	< 0.3 µM	> 0.3 µM	> 3 µM
